Experimental data taken from US20060172941A1, “Anti-angiogenic peptides and methods of use thereof” (priority 2004, published 2006).
“Also recorded” adds a separate entry of the source. Values belong to the sequence of their own block, whether it stands above or below them. Where no end group is shown, it is not given here. [ ]: non-standard residue; d: D form.

Experiments:
[1] = test system: Bovine Retinal Endothelial Cells (BRE); test: VEGF-mediated survival/proliferation of bovine retinal endothelial cells (WST1); type: cell-based; conditions: VEGF 25 ng/ml, 72 hours; for Inhibition of VEGF-mediated survival/proliferation: FIG. 4 and 5
Procedure: (§1) The anti-angiogenic activities of the peptides were tested by measuring the level of inhibition of VEGF and bFGF mediated survival/proliferation of Bovine Retinal Endothelial Cells (BRE), Human Dermal Microvasculature Endothelial Cells, and Human Umbilical Vein Endothelial Cells, all of which are standard cell lines used to test anti-angiogenic compounds.
Bovine retinal endothelial (BRE) cells were maintained in Cambrex EG2 media. For non-adherent cell assays, on day one cells were starved for either 6 hours or overnight, then trypsinized and plated in 96-well plates in 100 μl of Optimem plus 1% fetal bovine serum (FBS). One hundred μl of Optimem plus 1% FBS was added to the wells containing, where appropriate, VEGF to a final concentration of 25 ng/ml, and the various peptides to final concentrations as described. For adherent cells, cells were plated in 96-well plates in complete media, allowed to adhere overnight, washed in starvation media (Optimem plus 1% FBS) and then starved during the day. At the end of the day, 100 μl of Optimem plus 1% FBS was added to the wells containing, where appropriate, VEGF to a final concentration of 25 ng/ml and the various peptides to final concentrations as described.
(§2) In all cases, after 72 hours incubation, the amount of live cells in each well was measured with the WST1 assay (Roche).

B16-F1 melanoma cells = test: Subcutaneous B16 melanoma tumor growth in vivo; design: species or system mouse
Procedure: Because of the importance of the angiogenic process for tumorigenesis, miniproteins as described herein, were hypothesized to show good anti-tumor activity. The peptides of the invention were tested in an in vivo model of anti-tumor activity. This model compares the growth of subcutaneous B16 melanoma tumor in vivo either untreated or treated with various amount of miniproteins described in this application. This model is widely accepted in the art as a model to test the anti-tumor activity of compounds that inhibit tumor growth because they have anti-angiogenic activity.
Male C57BL/6 mice were obtained with a mean body weight of 20±2 g. Mouse B16-F1 melanoma cells were implanted subcutaneously (5×10^5 cell per animal). Peptides (formulated in water) were administered ip daily at the amount indicated starting the day after cells injection. In general, tumors became palpable around 9 days after injection of cells. Tumor were then measured every 2 days.

[2] = test system: VEGF binding to its receptor; test: Inhibition of binding of radiolabeled VEGF to endothelial cells; conditions: 30 μM; for VEGF binding inhibition: FIG. 7 legend
Procedure: The activity of the peptides SEQ ID NO.: 1 and SEQ ID NO.: 2 in blocking the binding of radiolabeled VEGF to endothelial cells is shown in FIG. 7.
FIG. 7 illustrates the inhibition of VEGF binding to its receptor by two miniproteins wherein a heparin binding domain is linked to an integrin binding domain. […] Both peptides achieved an almost 100% inhibition at a concentration of 30 μM.

[3] = Heparin binding activity, Hi Trap Heparin HP column, NaCl step elution; conditions: for [NaCl] for elution: heparin column; for fraction number: 500 μl fractions of heparin column elution
Excerpt: Liquid chromatography was used to determine the relative levels of heparin binding activity of the individual heparin binding domains and of the anti-angiogenic miniproteins that contains them. In this assay, the strength of the heparin binding activity is proportional to the amount of NaCl that is required to elute the peptide bound to the heparin column. Peptides with low binding activity are eluted with lower NaCl concentration, whereas higher concentrations of NaCl are required for peptides with higher binding activity.
Hi Trap Heparin HP column (1 ml, Amersham Biosciences) was equilibrated with 10 column volumes (CV) of equilibration (EQ) buffer=10 mM NaH2PO4 pH 7. All buffers were loaded onto columns via syringes. 500 μl fractions are collected (flow rate=1 ml/minute). 500 μg of peptide (1 mg/ml, resuspended in EQ buffer) was added to each column and the flow through was collected for analysis. The columns were then washed with 3 CV of EQ buffer. Peptides are then eluted with a step gradient of 500, 625, 750, 875 mM NaCl in EQ buffer, 2 CV per each step. A final step of 3 CV of 1000 mM NaCl in EQ buffer was collected in 500 μl fractions. The A210 nm was measured using EQ and elution buffers as blanks.

[4] = test system: L1210 murine leukemia cells; test: L1210 murine leukemia intravenous model, survival; type: in vivo, mouse; conditions: dosed IP, FIG. 15a; for Survival: DBA/2 mice
Procedure: Antitumor activity of test peptides, administered intraperitoneally (IP), were evaluated against L1210 murine leukemia cells implanted intravenously (IV) in DBA/2 mice.
Studies generally consisted of randomly-assigned groups of 8 mice per group, which were inoculated IV with 1×10^5 cells per mouse from an in vivo leukemia cell line. In addition to groups tested with test peptides, studies usually included a vehicle-treated control group and a positive control group treated with an agent known to be active in the L1210 leukemia model. Starting one day after tumor inoculation (inoculation day defined as Day 0), mice were treated IP with either vehicle or test peptides in various schedules. Generally this consisted of treatment every other day for approximately 1 week (e.g., Days 1, 3, 5 and 7). A positive agent (e.g., cyclophosphamide) was usually given as a single IP injection on Day 1. All dosing solutions were prepared on each day of treatment. Survival was monitored daily and body weights were measured twice weekly. Anti-tumor activity was assessed by the increase in lifespan of the treated groups in comparison to the vehicle-treated control group. Studies with the L1210 leukemia model were limited to 30 days.

[5] = test system: Human Umbilical Vein Endothelial Cells; test: bFGF-mediated survival/proliferation of human umbilical vein endothelial cells (WST1); type: cell-based; conditions: FIG. 6, 9, 10, 17
Procedure: as §1
Human umbilical cord endothelial (HUVEC) cells were maintained in Cambrex EGM-2MV media. On day one, cells were starved overnight in 1% FBS in M200 media (Cascade Biologicals). The morning after, the media were replaced with serum-free media (control) or media containing 25 ng/ml of human VEGF165 and the various peptides to final concentrations as described.
as §2

[6] = 20 mg/kg daily IP, vs untreated controls, FIG. 12 and 14
[7] = step gradient in 10 mM NaH2PO4 pH 7

Sequence: ATSLPPHSSQSP (listed as Homo sapiens) [ST100,038]
Concentration that completely abolished VEGF-induced increase in WST-1 value ([1]; FIG. 4): above 40 μM | Inhibition of VEGF-mediated survival/proliferation [1]: caused the amount of WST-1 to decrease

Sequence: ATSLPPHSSQSPGGGPPAARGRRAARGRR (listed as Homo sapiens) [ST100,062]
P (ANOVA) of tumor growth inhibition (B16-F1 melanoma cells; 20 mg/kg daily IP, FIG. 12): > 0.05 | Inhibition of tumor growth (B16-F1 melanoma cells; [6]): clearly inhibit tumor growth

Sequence: PYAGRGDSVVYGLGGGPGAARGRRAARGRR [ST100,033]
inhibition of VEGF binding [2]: ~100% | VEGF binding inhibition [2]: completely abolished VEGF binding

Sequence: RAAKKRARAAKKRARAAKKRLGYVVSDGRGDYP (listed as Homo sapiens) [ST100,079]
[NaCl] for elution [3, 7]: 1000 mM

Sequence: RLGYVVSDGRGDYPKKKRRGRAARRGRAA [ST100,065, middle rotated replaced version of ST100,061]
Survival [4]: statistically significant increases in survival | mice (cured mice) that survived longer than 30 days [4]: Sixty to eighty | heparin binding activity (comparison in words) [3]: bind less strongly than ST100,082 | [NaCl] for elution [3, 7]: 750 mM

Sequence: RRGRAAKKKRRGRAAKKKPSQSSHPPLSTA (listed as Homo sapiens) [ST100,072]
Inhibition of bFGF-mediated survival [5]: more potent in blocking bFGF stimulation | fraction number [3]: 26-27 | [NaCl] for elution [3, 7]: 1000 mM

Sequence: RRGRAAKKKRRGRAAKKKRLGYVVSDGRGDYP [ST100,074]
Survival [4]: statistically significant increases in survival | mice (cured mice) that survived longer than 30 days [4]: Sixty to eighty | Inhibition of bFGF-mediated survival [5]: the most active in inhibiting bFGF stimulation | fraction number [3]: 27-28 | [NaCl] for elution [3, 7]: 1000 mM

Sequence: RRGRAARRGRAAKKKPSQSSHPPLSTA (listed as Homo sapiens) [ST100,068]
Inhibition of tumor growth (B16-F1 melanoma cells; 20 mg/kg and 40 mg/kg daily IP, FIG. 13): able to inhibit tumor growth | Inhibition of VEGF-mediated survival/proliferation [1]: VEGF stimulation was inhibited with increasing doses; also recorded: more potent in blocking VEGF stimulation | [NaCl] for elution [3, 7]: 875 mM

Sequence: RRGRAARRGRAARRGRAAKKKPSQSSHPPLSTA (listed as Homo sapiens) [ST100,073]
Inhibition of tumor growth (B16-F1 melanoma cells; [6]): able to inhibit tumor growth | Inhibition of bFGF-mediated survival [5]: more potent in blocking bFGF stimulation; also recorded: the most active in inhibiting bFGF stimulation | fraction number [3]: 26-27 | [NaCl] for elution [3, 7]: 1000 mM

Sequence: RRGRRRGRRRGRRRGKKPSQSSHPPLSTA ([dR][dR]G[dR][dR][dR]G[dR][dR][dR]G[dR][dR][dR]G[dK][dK][dP][dS][dQ][dS][dS][dH][dP][dP][dL][dS][dT][dA]; listed as Homo sapiens) [ST100,093]
Inhibition of bFGF-mediated survival [5]: more potent than similar peptides with weaker heparin binding domains

Sequence: YDGRGDSVVYGLKKKAARGRRAARGRR [ST100,032]
inhibition of VEGF binding [2]: ~100% | VEGF binding inhibition [2]: completely abolished VEGF binding

Next, values leading:

heparin binding activity (comparison in words) [3]: even greater increase in heparin binding | fraction number [3]: 35-36 | [NaCl] for elution [3, 7]: 1500 mM
Sequence: RKGRRKGRRKGRRKGRRKGKK ([dR][dK]G[dR][dR][dK]G[dR][dR][dK]G[dR][dR][dK]G[dR][dR][dK]G[dK][dK]; listed as Homo sapiens) [ST100,087]

fraction number [3]: 26-27 | [NaCl] for elution [3, 7]: 1000 mM
Sequence: RKKAARARKKAARARKKAARRLGYVVSDGRGDYP (listed as Homo sapiens) [ST100,081]

[NaCl] for elution [3, 7]: 1100 mM
Sequence: RKRAARARKRAARARKRAARR (listed as Homo sapiens) [ST100,083]

fraction number [3]: 26-27 | [NaCl] for elution [3, 7]: 1000 mM
Sequence: RRGRAAKKKRRGRAAKKK (listed as Homo sapiens) [ST100,082]

fraction number [3]: 31-32 | [NaCl] for elution [3, 7]: 1100 mM
Sequence: RRGRARRGRARRGRARRGKK ([dR][dR]G[dR][dA][dR][dR]G[dR][dA][dR][dR]G[dR][dA][dR][dR]G[dK][dK]; listed as Homo sapiens) [ST100,085]

heparin binding activity (comparison in words) [3]: even greater increase in heparin binding | fraction number [3]: 34-35 | [NaCl] for elution ([3]; unit given as M): 1300 mM
Sequence: RRGRRRGRRRGRRRGKK (listed as Homo sapiens) [ST100,089]

heparin binding activity (comparison in words) [3]: even greater increase in heparin binding | fraction number [3]: 33-34 | [NaCl] for elution [3, 7]: 1300 mM
Sequence: RRQRRRGRRRQRRRGKK (listed as Homo sapiens) [ST100,090]
